Drawing on patent publication US20230322846A9, “NEUROACTIVE STEROIDS AND THEIR METHODS OF USE” (SAGE THERAPEUTICS, INC., priority 2018, published 2023), this text covers IC50 for 26 compounds.

The assay addresses [35S]-TBPS binding, rat brain cortical membranes. In words: Steroid inhibition of [35S]-TBPS binding. Conditions: 3 nM [35S]-TBPS, in the presence of 5 mM GABA. In outline:
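Rat cortical P2 membranes incubated 90 min at room temperature with 3 nM [35S]-TBPS, […] and test compound (0.5% DMSO final) in NaCl/Na–K phosphate pH 7.4; nonspecific binding with […]. Filter-bound radioactivity counted; IC50 and Imax from nonlinear fits, mean ± SEM.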

`C[C@@H](NC(=O)c1cccnc1)[C@H]1CC[C@H]2[C@@H]3CC[C@@H]4C[C@](C)(O)CC[C@@H]4[C@H]3CC[C@]12C` [Example 29, N—((R)-1-((3R,5R,8R,9R,10S,13S,14S,17S)-3-hydroxy-3,13-dimethylhexadecahydro-1H-cyclopenta[a]phenanthren-17-yl)ethyl)nicotinamide]: the IC50 fell in the range of 100 to 1000 nM.
`C[C@H](Cc1ccc(C(F)(F)F)nc1)[C@H]1CC[C@H]2[C@@H]3CC[C@@H]4C[C@](C)(O)CC[C@@H]4[C@H]3CC[C@]12C` [Example 444]: the IC50 lay within 100 to 1000 nM.
With `CCC[C@@]1(O)CC[C@@]2(CC)[C@H](CC[C@H]3[C@@H]4CC[C@H]([C@H](C)Cn5cc(C#N)cn5)[C@@]4(C)CC[C@@H]32)C1` [Example 302, 1-((S)-2-((3R,5R,8S,9S,10S,13S,14S,17R)-10-ethyl-3-hydroxy-13-methyl-3-propylhexadecahydro-1H-cyclopenta[a]phenanthren-17-yl)propyl)-1H-pyrazole-4-carbonitrile], the IC50 was under 100 nM.
With `CCC[C@@]1(O)CC[C@H]2[C@@H](CC[C@@H]3[C@@H]2CC[C@]2(C)[C@@H]([C@H](C)Cn4cc(C#N)cn4)CC[C@@H]32)C1` [Example 350, 1-((S)-2-((3R,5S,8R,9R,10S,13S,14S,17R)-3-hydroxy-13-methyl-3-propylhexadecahydro-1H-cyclopenta[a]phenanthren-17-yl)propyl)-1H-pyrazole-4-carbonitrile], the IC50 was at least 10000 nM.
For `C[C@@H](NC(=O)c1ccccc1F)[C@H]1CC[C@H]2[C@@H]3CC[C@@H]4C[C@](C)(O)CC[C@@H]4[C@H]3CC[C@]12C` [Example 103], the IC50 was under 100 nM.
As for `CC[C@@H](Nc1cccc(C#N)c1)[C@H]1CC[C@H]2[C@@H]3CC[C@@H]4C[C@@](O)(COC)CC[C@@H]4[C@H]3CC[C@]12C` [Example 497, 3-(((R)-1-((3R,5R,8R,9R,10S,13S,14S,17S)-3-hydroxy-3-(methoxymethyl)-13-methylhexadecahydro-1H-cyclopenta[a]phenanthren-17-yl)propyl)amino)benzonitrile], the IC50 is 100 to 1000 nM.
`CCOC[C@@]1(O)CC[C@H]2[C@H](CC[C@@H]3[C@@H]2CC[C@]2(C)[C@@H]([C@@H](C)NC(=O)c4ccccc4F)CC[C@@H]32)C1` [Example 42, N—((R)-1-((3R,5R,8R,9R,10S,13S,14S,17S)-3-(ethoxymethyl)-3-hydroxy-13-methylhexadecahydro-1H-cyclopenta[a]phenanthren-17-yl)ethyl)-2-fluorobenzamide]: the IC50 lay within 100 to 1000 nM.
For `COC[C@@]1(O)CC[C@@]2(C)[C@H](CC[C@@H]3[C@@H]2[C@H](O)C[C@]2(C)[C@@H]([C@@H](C)Cn4cc(C#N)cn4)CC[C@@H]32)C1` [Example 283, 1-((R)-2-((3R,5R,8S,9S,10S,11R,13S,14S,17R)-3,11-dihydroxy-3-(methoxymethyl)-10,13-dimethylhexadecahydro-1H-cyclopenta[a]phenanthren-17-yl)propyl)-1H-pyrazole-4-carbonitrile], the IC50 fell in the range of 100 to 1000 nM.
The figure for `CCC[C@@]1(O)CC[C@@]2(C)[C@H](CC[C@@H]3[C@@H]2CC[C@]2(C)[C@@H]([C@H](C)Cn4nnc(C)n4)CC[C@@H]32)C1` [Example 314, (3R,5R,8R,9S,10S,13S,14S,17R)-10,13-dimethyl-17-((S)-1-(5-methyl-2H-tetrazol-2-yl)propan-2-yl)-3-propylhexadecahydro-1H-cyclopenta[a]phenanthren-3-ol] is 100 to 1000 nM; for `CCC[C@@]1(O)CC[C@H]2[C@H](CC[C@@H]3[C@@H]2CC[C@]2(C)[C@@H]([C@H](C)Cn4cc(C#N)cn4)CC[C@@H]32)C1` [Example 66, 1-((S)-2-((3R,5R,8R,9R,10S,13S,14S,17R)-3-hydroxy-13-methyl-3-propylhexadecahydro-1H-cyclopenta[a]phenanthren-17-yl)propyl)-1H-pyrazole-4-carbonitrile] it is under 100 nM; for `CCC[C@@]1(O)CC[C@@]2(COC)[C@H](CC[C@H]3[C@@H]4CC[C@H]([C@@H](C)Cn5nnc(C)n5)[C@@]4(C)CC[C@@H]32)C1` [Example 319, (3R,5R,8S,9S,10R,13S,14S,17R)-10-(methoxymethyl)-13-methyl-17-((R)-1-(5-methyl-2H-tetrazol-2-yl)propan-2-yl)-3-propylhexadecahydro-1H-cyclopenta[a]phenanthren-3-ol] it is under 100 nM.
On to `C[C@@H]([C@H]1CC[C@H]2[C@@H]3CC[C@@H]4C[C@](C)(O)CC[C@@H]4[C@H]3CC[C@]12C)n1nccn1` [Example 164, (3R,5R,8R,9R,10S,13S,14S,17S)-17-((S)-1-(2H-1,2,3-triazol-2-yl)ethyl)-3,13-dimethylhexadecahydro-1H-cyclopenta[a]phenanthren-3-ol], for which the IC50 is 1000 to 10000 nM.
`CC[C@H](Nc1cccc(C#N)c1)[C@H]1CC[C@H]2[C@@H]3CC[C@@H]4C[C@@](O)(COC)CC[C@@H]4[C@H]3CC[C@]12C` [Example 496, 3-(((S)-1-((3R,5R,8R,9R,10S,13S,14S,17S)-3-hydroxy-3-(methoxymethyl)-13-methylhexadecahydro-1H-cyclopenta[a]phenanthren-17-yl)propyl)amino)benzonitrile]: the IC50 lay within 100 to 1000 nM.
Turning to `CCOC[C@@]1(O)CC[C@H]2[C@H](CC[C@@H]3[C@@H]2CC[C@]2(C)[C@@H]([C@H](C)Cn4nnc(C)n4)CC[C@@H]32)C1` [Example 289, (3R,5R,8R,9R,10S,13S,14S,17R)-3-(ethoxymethyl)-13-methyl-17-((S)-1-(5-methyl-2H-tetrazol-2-yl)propan-2-yl)hexadecahydro-1H-cyclopenta[a]phenanthren-3-ol], the IC50 is under 100 nM.
For the compound `COC[C@@]1(O)CC[C@H]2[C@H](CC[C@@H]3[C@@H]2CC[C@]2(C)[C@@H]([C@H](C)Nc4ccc(C#N)cc4C)CC[C@@H]32)C1` [Example 253], the IC50 fell in the range of 1000 to 10000 nM.
As for `C[C@@H](Cc1ccc(C(F)(F)F)nc1)[C@H]1CC[C@H]2[C@@H]3CC[C@@H]4C[C@](C)(O)CC[C@]4(C)[C@H]3CC[C@]12C` [Example 427], the IC50 was under 100 nM.
As for `CCOC[C@@]1(O)CC[C@H]2[C@H](CC[C@@H]3[C@@H]2CC[C@]2(C)[C@@H]([C@@H](C)NC(=O)c4ccc(C#N)cc4F)CC[C@@H]32)C1` [Example 133], the IC50 was under 100 nM.
Turning to `C[C@H](NC(=O)c1ccc(C#N)cc1)[C@H]1CC[C@H]2[C@@H]3CC[C@@H]4C[C@](C)(O)CC[C@@H]4[C@H]3CC[C@]12C` [Example 115], the IC50 lay within 1000 to 10000 nM.
Turning to `C[C@H](NC(=O)c1ccc(F)cc1)[C@H]1CC[C@H]2[C@@H]3CC[C@@H]4C[C@](C)(O)CC[C@@H]4[C@H]3CC[C@]12C` [Example 117], the IC50 was in the range of 1000 to 10000 nM.
As to `C[C@@H]1CCCC(=O)N1C[C@H]1CC[C@H]2[C@@H]3CC[C@@H]4C[C@](C)(O)CC[C@@H]4[C@H]3CC[C@]12C` [Example 7, (R)-1-(((3R,5R,8R,9R,10S,13S,14S,17S)-3-hydroxy-3,13-dimethylhexadecahydro-1H-cyclopenta[a]phenanthren-17-yl)methyl)-6-methylpiperidin-2-one], the IC50 was 1000 to 10000 nM.
`Cc1cnc(C[C@@H](C)[C@H]2CC[C@H]3[C@@H]4CC[C@@H]5C[C@](C)(O)CC[C@@H]5[C@H]4CC[C@]23C)cn1` [Example 440]: the IC50 is under 100 nM.
Regarding `COC[C@@]1(O)CC[C@H]2[C@@H](CC[C@@H]3[C@@H]2CC[C@]2(C)[C@@H]([C@@H](C)Cn4nnnc4C)CC[C@@H]32)C1` [Example 55, (3R,5S,8R,9R,10S,13S,14S,17R)-3-(methoxymethyl)-13-methyl-17-((R)-1-(5-methyl-1H-tetrazol-1-yl)propan-2-yl)hexadecahydro-1H-cyclopenta[a]phenanthren-3-ol], the IC50 was under 100 nM.
On to `CCC[C@@]1(O)CC[C@@]2(C)[C@H](CC[C@@H]3[C@@H]2CC[C@]2(C)[C@@H]([C@H](C)Cn4cc(C#N)cn4)CC[C@@H]32)C1` [Example 308, 1-((S)-2-((3R,5R,8R,9S,10S,13S,14S,17R)-3-hydroxy-10,13-dimethyl-3-propylhexadecahydro-1H-cyclopenta[a]phenanthren-17-yl)propyl)-1H-pyrazole-4-carbonitrile], for which the IC50 was under 100 nM.
As for `CCOC[C@@]1(O)CC[C@H]2[C@H](CC[C@@H]3[C@@H]2CC[C@]2(C)[C@@H]([C@@H](CC)Nc4cccc(C#N)c4)CC[C@@H]32)C1` [Example 492, 3-(((R)-1-((3R,5R,8R,9R,10S,13S,14S,17S)-3-(ethoxymethyl)-3-hydroxy-13-methylhexadecahydro-1H-cyclopenta[a]phenanthren-17-yl)propyl)amino)benzonitrile], the IC50 was 1000 to 10000 nM.
The figure for `CCC[C@@]1(O)CC[C@@]2(C)[C@H](CC[C@@H]3[C@@H]2CC[C@]2(C)[C@@H]([C@H](C)Cn4nnnc4C)CC[C@@H]32)C1` [Example 316, (3R,5R,8R,9S,10S,13S,14S,17R)-10,13-dimethyl-17-((S)-1-(5-methyl-1H-tetrazol-1-yl)propan-2-yl)-3-propylhexadecahydro-1H-cyclopenta[a]phenanthren-3-ol] is under 100 nM; for `CCC[C@@]1(O)CC[C@@]2(C)[C@H](CC[C@@H]3[C@@H]2[C@@H](O)C[C@]2(C)[C@@H]([C@@H](C)Cn4cc(C#N)cn4)CC[C@@H]32)C1` [Example 309, 1-((R)-2-((3R,5R,8S,9S,10S,11S,13S,14S,17R)-3,11-dihydroxy-10,13-dimethyl-3-propylhexadecahydro-1H-cyclopenta[a]phenanthren-17-yl)propyl)-1H-pyrazole-4-carbonitrile] it is under 100 nM.
